Data reported in patent US5023273A, “6-oxoprostaglandin E derivatives, process for their production and their pharmaceutical use” (Schering Aktiengesellschaft, priority 1987, dated 1991).

Key:
Thrombocyte [1] = experiment: Thrombocyte aggregation inhibition; assay type: cell-based
Description: (§1) The pharmacological comparison tests, which were conducted with the compounds from examples 1 and 4 in comparison with 6-oxo-PGE1, are summarized in the following table.

Thrombocyte [2] = experiment: Thrombocyte shape change; assay type: cell-based
Description: as §1

[3] = tested on: Stomach (rats, trauma with ethanol); experiment: Cytoprotection, stomach (rats, trauma with ethanol); assay type: in vivo; conditions: 10 micrograms/kg
Description: as §1

IC50 (Thrombocyte [1]) [nM]	IC50 (Thrombocyte [2]) [nM]	Compound	Cytoprotection, stomach: inhibition [3] [%]
1.7	10	CC#CCC(C)[C@H](O)/C=C/[C@H]1[C@H](O)CC(=O)[C@@H]1CC(=O)CCCCC(=O)O (mixture of isomers) [Example 1, (13E)-(11R,15S,16RS)-6,9-Di-oxo-11,15-dihydroxy-16-methyl-18,18,19,19-tetradehydro-13-prostenoic acid]	
0.09	1	CCC#CC[C@H](C)[C@H](O)C#C[C@H]1[C@H](O)CC(=O)[C@@H]1CC(=O)CCCCC(=O)O [Example 4, (11R,15S,16S)-6,9-di-oxo-11,15-dihydroxy-16,20-dimethyl-13,14,18,18,19,19-hexadehydroxy-13-prostenoic acid]	
7		CCCCC[C@H](O)/C=C/[C@H]1[C@H](O)CC(=O)[C@@H]1CC(=O)CCCCC(=O)O [Example 6oxoPGE1, reference compound]	52
